Earlier results in EP3272348A1, “PHARMACEUTICAL COMPOSITION COMPRISING IDELALISIB” (LEK Pharmaceuticals d.d., priority 2016, dated 2018).
Where two headings read alike, the source gives them in different places.

Experiments:
[1] = not given; remark: listed apart in the source

permeability: high permeability | solubility ([1]; pH 1.2): soluble | solubility ([1]; pH 7): not soluble
SMILES: CC[C@H](Nc1ncnc2[nH]cnc12)c1nc2cccc(F)c2c(=O)n1-c1ccccc1 [Crystalline idelalisib, (S)-2-(I-(9H-purin-6-ylamino)propyl)-5-fluoro-3-phenyl-quinazolin-4(3H)-one]
